Laboratory results as given in publication PMC5484485, “In vitro and in vivo effects of kisspeptin antagonists p234, p271, p354, and p356 on GPR54 activation” (PLoS ONE, 2017).
Square brackets hold non-standard residues; d marks the D form. Ends that are not written are not given here.

Legend:
plasma LH concentration [1] = experiment: Plasma LH in anestrous Beagle bitches during antagonist infusion and after cKP10 bolus; type: in vivo, dog; details: n = 6
Text: Thirteen adult anestrous Beagle bitches were used for this study. Six dogs with a median age of 89 months (range 43–122 months) were used as control group, receiving cKP10 without an antagonist. Eight dogs with a median age of 52 months (range 31–116 months) were used for the antagonist experiments. One dog was first used in the control group and 12 months later for the antagonist experiments. Of the eight dogs used for the antagonist experiments, four received p271, p354, and p356. In two of the eight dogs both p354 and p356 were tested, while in the remaining two dogs only p271 was tested, in order to test every antagonist in 6 dogs. The time between testing of different kisspeptin antagonists was at least 5 days (range 5–15 days) to ensure that there were no peptide residues. Kisspeptin antagonist p234 per se was not tested in vivo because p271 is in fact p234 with a penetratin tag to enhance passage across the blood-brain barrier, as has been described for use with peripheral administration.
Kisspeptin antagonists (50 μg/kg/h) were administered continuously for three hours via a catheter in the cephalic vein. Two hours after the start of the infusion, a single bolus of cKP10 (0.5 μg/kg) was administered intravenously. Blood samples were collected from the jugular vein by venipuncture at -40 min and 0 min before the antagonist infusion, and then every 30 min for two hours. After the administration of cKP10, blood samples were collected at 10, 20, 40, and 60 min (i.e., 130, 140, 160, and 180 min after the start of the antagonist infusion).
As a control, KP stimulation tests (without the administration of a kisspeptin antagonist) were performed in six dogs. Blood samples were collected from the jugular vein by venipuncture at -40 min and 0 min before, and then at 10, 20, 40, and 60 min after administration of cKP10 (0.5 μg/kg). Plasma LH concentrations were measured in all blood samples.
Plasma LH concentrations were measured with a heterologous radioimmunoassay validated for the dog, as described previously. The intra- and interassay CVs for values above 0.5 μg/l were 2.3 and 10.5%, respectively, and the limit of quantitation was 0.3 μg/l.
In both groups of dogs (experimental and control), the basal plasma LH concentration was calculated for each dog as the mean of the values at –40 and 0 min before cKP10 or antagonist administration. All LH values that exceeded the mean of all basal samples plus 3 SD were attributed to pulsatile secretion and were treated as outliers and excluded from statistical analysis. Log transformation of plasma LH concentrations was used because data were not normally distributed. A linear mixed model was used to analyze differences in plasma LH concentrations before and after KP10, with or without a kisspeptin antagonist (group effects: p271, p354, p356, and controls), with Bonferroni correction. P<0.05 was considered significant.

CHEM1-GPR54 cells = target: T1, CHEM1-GPR54 cells (Homo sapiens, UniProt Q969F8); experiment: Preliminary calcium flux assay with adherent CHEM1-GPR54 cells (unpublished); type: cell-based; details: too few repeats for statistics
T1 construct: host or cells: rat hematopoietic CHEM1 cells expressing endogenous Galpha15

plasma LH concentration [2] = experiment: Other studies with p271 up to 600 μg/kg/h in castrated male dogs and anestrous bitches (unpublished); type: in vivo, dog; details: doses of up to 600 μg/kg/h, unpublished data
Description: These doses also had no effect on plasma LH concentration in the castrated male dogs or on the KP10-induced LH response in the female dogs (unpublished data). It is therefore unlikely that the lack of antagonistic effects is related to the dose of 50 μg/kg/h used in the present study.

plasma LH concentration [3] = details: bitches; anestrus, follicular phase, two stages of luteal phase; cited from earlier work
Text: Sensitivity to exogenous KP10 differs according to the stage of the reproductive cycle, as has been shown in rats, ewes, bitches, and women. In the bitch, the highest KP10-induced LH response was obtained during anestrus and the lowest was during the follicular phase. It is possible that the effects of a KP antagonist also differ among the cycle stages.

circulating LH / puberty = details: cited from earlier work
Description: The development of kisspeptin antagonists contributed to an improved understanding of the role of kisspeptin in the reproductive system. Roseweir et al. developed several KP10 analogues and tested their effect on inositol phosphate (IP) release in Chinese hamster ovarian (CHO) cells stably expressing the human GPR54. […] The kisspeptin antagonists were administered intravenously in a dose of 50 μg/kg/h, and had no effect on either the basal plasma LH concentration during the continuous administration or on the KP10-induced LH response. These findings are in line with a previous study in female dogs. […] Adult male rats received an intrape ...

LH pulses = details: intact and ovariectomized ewes; continuous intracerebroventricular; cited from earlier work
human GPR54 = human GPR54 (Homo sapiens, UniProt Q969F8); experiment: Flow cytometric calcium flux assay, response to peptide alone (agonist / intrinsic activity); type: cell-based; set-up: host or cells: rat hematopoietic CHEM1 cells expressing endogenous Galpha15; details: any tested concentration, 10^-13 to 10^-5 M; n = 3
Description: In vitro analyses of the effects of kisspeptin and kisspeptin antagonists, were performed using HT[…] cells (rat hematopoietic CHEM1 cells expressing endogenous Gα15 and, stably expressing the human GPR54 receptor (Millipore BV, the Netherlands), CHEM1-GPR54. Cells were counted and suspended in HBSS+++ at a concentration of 5*10^6 cells/ml. To load the cells with the fluorescent dye ester they were incubated in HBSS+++ adjusted to a concentration of 2 μM Fluo-3 AM (Molecular Probes, Life Technologies, the Netherlands) for 1h at 37°C under agitation in the dark. After incubation, the cells were washed by adding HBSS+++ to a volume of 10 ml followed by centrifugation (5 min, 150 x g) to remove excess of Fluo-3AM. […] Thereafter the tube was removed briefly and 25 μl peptide (see below) was added, after which aspiration and analysis continued. For statistical analyses fluorescent data recorded during the time interval 30-60 seconds after initiation of measurement were used. […] Experiments were performed 3 times. Representative flow cytometry results are depicted in Fig 1. […] We then assessed whether these antagonists could compete with KP10 for its receptor. […] For this purpose 25 μl quantities of the antagonists were added to 200 μl of Fluo-3 AM labelled cells (10^6 cells/ml) and incubated for 15 min. […] Peptides p354 and p356 were tested three times with both human and canine KP10; while peptides p234 and p271 were tested three times with human KP10 and once with canine KP10. […] A multivariate general linear model was set up to analyze differences in calcium response between the different concentrations, with Dunnett's test as a post hoc procedure for the antagonists and Bonferroni's test for the agonists.

[4] = antagonist 50 μg/kg/h iv, cKP10 0.5 μg/kg iv
[5] = adult male rats, 5 nmol ip every hour for three hours

Chain of human GPR54 (Q969F8 whole entry): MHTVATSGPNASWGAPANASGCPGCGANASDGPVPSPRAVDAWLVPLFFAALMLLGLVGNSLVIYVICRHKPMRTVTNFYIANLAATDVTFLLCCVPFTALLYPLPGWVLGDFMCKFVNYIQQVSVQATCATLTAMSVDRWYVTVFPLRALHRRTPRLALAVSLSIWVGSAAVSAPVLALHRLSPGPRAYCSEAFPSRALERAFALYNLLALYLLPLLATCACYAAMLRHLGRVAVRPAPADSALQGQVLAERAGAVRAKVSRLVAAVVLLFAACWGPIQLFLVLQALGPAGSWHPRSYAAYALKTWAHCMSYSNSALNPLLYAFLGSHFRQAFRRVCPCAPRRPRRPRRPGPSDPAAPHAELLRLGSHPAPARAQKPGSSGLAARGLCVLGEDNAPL
T1 sequence (Q969F8 whole entry): as above

inhibition of KP10-induced calcium response, adherent cells (CHEM1-GPR54 cells): could not be inhibited
Substance: RRMKWKKY[dA]NWNGFG[dW]RF-NH2 [p271, p234 with a penetratin tag]
Median (and range) plasma LH, t = 30 (plasma LH concentration [1]; 30 min of antagonist infusion 50 μg/kg/h iv): 3.9 (2.2–5.4) μg/L | Median (and range) plasma LH, t = 60 (plasma LH concentration [1]; 60 min of antagonist infusion 50 μg/kg/h iv): 5.2 (2.5–10.0) μg/L | Median (and range) plasma LH, t = 90 (plasma LH concentration [1]; 90 min of antagonist infusion 50 μg/kg/h iv): 4.5 (2.8–6.3) μg/L | Median (and range) plasma LH, t = 120 (plasma LH concentration [1]; 120 min of antagonist infusion 50 μg/kg/h iv, before cKP10): 6.0 (3.2–7.5) μg/L | median maximum increment in plasma LH concentration after cKP10 during antagonist administration (plasma LH concentration [1]; [4]): 12.2 µg/L | range of maximum increment in plasma LH concentration after cKP10 during antagonist administration (plasma LH concentration [1]; [4]): 4.7 to 18.2 µg/L | Median (and range) plasma LH, t = 130 / t = 10* (plasma LH concentration [1]; antagonist infusion 50 μg/kg/h iv, 10 min after cKP10 0.5 μg/kg iv): 16.2 (9.3–24.1) μg/L | Median (and range) plasma LH, t = 140 / t = 20* (plasma LH concentration [1]; antagonist infusion 50 μg/kg/h iv, 20 min after cKP10 0.5 μg/kg iv): 10.0 (5.7–12.6) μg/L | Median (and range) plasma LH, t = 160 / t = 40* (plasma LH concentration [1]; antagonist infusion 50 μg/kg/h iv, 40 min after cKP10 0.5 μg/kg iv): 6.4 (4.8–8.8) μg/L | Median (and range) plasma LH, t = 180 / t = 60* (plasma LH concentration [1]; antagonist infusion 50 μg/kg/h iv, 60 min after cKP10 0.5 μg/kg iv): 4.8 (3.5–7.3) μg/L | Median (and range) plasma LH, Basal (plasma LH concentration [1]; before antagonist infusion (mean of -40 and 0 min per dog)): 4.0 (2.9–5.9) μg/L | effect on basal plasma LH concentration (plasma LH concentration [1]; continuous iv 50 μg/kg/h, anestrous bitches): did not cause significant alterations | effect on KP10-induced LH response in female dogs (plasma LH concentration [2]; anestrous bitches): had no effect | effect on plasma LH concentration in castrated male dogs (plasma LH concentration [2]): had no effect | effect on basal plasma LH concentration, different stages of estrous cycle (plasma LH concentration [3]): did not result in a decrease | KP10-induced LH response, KP10 intracerebroventricular (circulating LH / puberty; [5]): blunted | KP10-induced LH response, KP10 intraperitoneal (circulating LH / puberty; [5]): absent | effect on post-castration rise in circulating LH (circulating LH / puberty; male rats, repeated peripheral administration): could prevent the post-castration rise in circulating LH | effect on KP10-induced rise in plasma LH (circulating LH / puberty; mice and rats, repeated peripheral administration): blunted the KP10-induced rise in plasma LH concentration | effect on LH pulses (LH pulses): inhibited LH pulses | intrinsic calcium response (human GPR54): no significant intrinsic calcium response
